Blank lines part the entries; values can stand above or below the compound they belong to. Activity calls are given as the source filed them. The calls are words filed in the database; no cut-off is given here.
Key:
COL1A1 promoter [1] = assay: Inhibition of COL1A1 promotor activity in human LX2 cells at 20 uM incubated for 24 hrs by luciferase reporter gene assay; type: cell-based
[2] = Cytotoxicity against human LX2 cells assessed as cell death incubated for 24 hrs by MTT assay; type: cell-based, LX-2
[3] = Anti-fibrogenic activity in human LX2 cells assessed as inhibition of TGFbeta1-induced COL1A1 mRNA expression at 10 uM incubated for 24 hrs by RT-PCR analysis; type: functional; conditions: LX-2
COL1A1 promoter [4] = assay: Inhibition of COL1A1 promotor activity in human LX2 cells at 50 uM incubated for 24 hrs by luciferase reporter gene assay; type: cell-based
LX-2 [5] = assay: Anti-fibrogenic activity in human LX2 cells assessed as inhibition of TGFbeta1-induced MMP2 protein level at 3 to 10 uM incubated for 24 hrs by Western blot analysis; type: functional, cell-based; conditions: dose 3-10 µM
[6] = Anti-fibrogenic activity in human LX2 cells assessed as inhibition of TGFbeta1-induced MMP2 mRNA expression at 10 uM incubated for 24 hrs by RT-PCR analysis; type: functional; conditions: LX-2
[7] = Anti-fibrogenic activity in human LX2 cells assessed as inhibition of TGFbeta1-induced TGFbeta1 mRNA expression at 3 uM incubated for 24 hrs by RT-PCR analysis; type: functional; conditions: LX-2
[8] = Anti-fibrogenic activity in human LX2 cells assessed as inhibition of TGFbeta1-induced CTGF mRNA expression at 3 uM incubated for 24 hrs by RT-PCR analysis; type: functional; conditions: LX-2
[9] = molecular target: Mothers against decapentaplegic homolog 3 (Homo sapiens) (UniProt P84022); assay: Inhibition of TGF-beta1 induced SMAD3 phosphorylation in human LX2 cells by Western blot analysis; type: cell-based
[10] = Anti-fibrogenic activity in human LX2 cells assessed as inhibition of TGFbeta1-induced ACTA2 mRNA expression at 10 uM incubated for 24 hrs by RT-PCR analysis; type: functional; conditions: LX-2
[11] = Anti-fibrogenic activity in human LX2 cells assessed as inhibition of TGFbeta1-induced TGFbeta1 mRNA expression at 10 uM incubated for 24 hrs by RT-PCR analysis; type: functional; conditions: LX-2
LX-2 [12] = assay: Down regulation of PI3K expression in TGF-beta1 induced human LX2 cells after 24 hrs by Western blot analysis; type: functional, cell-based
[13] = Anti-fibrogenic activity in human LX2 cells assessed as inhibition of TGFbeta1-induced ACTA2 mRNA expression at 3 uM incubated for 24 hrs by RT-PCR analysis; type: functional; conditions: LX-2
LX-2 [14] = assay: Anti-fibrogenic activity in human LX2 cells assessed as inhibition of TGFbeta1-induced CTGF protein level at 3 to 10 uM incubated for 24 hrs by Western blot analysis; type: functional, cell-based; conditions: dose 3-10 µM
LX2 = assay: Inhibition of PI3K/Akt pathway in human LX2 cells assessed as inhibition of TGF-beta1 induced AKT phosphorylation at 3 to 10 uM incubated for 24 hrs by Western blot analysis; type: cell-based; conditions: dose 3-10 µM
[15] = Anti-fibrogenic activity in human LX2 cells assessed as inhibition of TGFbeta1-induced MMP2 mRNA expression at 3 uM incubated for 24 hrs by RT-PCR analysis; type: functional; conditions: LX-2
LX-2 [16] = assay: Down regulation of STAT3 expression in TGF-beta1 induced human LX2 cells at 3 to 10 uM after 24 hrs by Western blot analysis; type: functional, cell-based; conditions: dose 3-10 µM
[17] = Anti-fibrogenic activity in human LX2 cells assessed as inhibition of TGFbeta1-induced CTGF mRNA expression at 10 uM incubated for 24 hrs by RT-PCR analysis; type: functional; conditions: LX-2
LX-2 [18] = assay: Anti-fibrogenic activity in human LX2 cells assessed as inhibition of TGFbeta1-induced COL1A1 protein level at 3 to 10 uM incubated for 24 hrs by Western blot analysis; type: functional, cell-based; conditions: dose 3-10 µM
[19] = molecular target: Tyrosine-protein kinase JAK2 (Homo sapiens) (UniProt O60674); assay: Inhibition of JAK2 phosphorylation in TGF-beta1 induced human LX2 cells at 3 to 10 uM incubated for 24 hrs by Western blot analysis; type: cell-based; conditions: dose 3-10 µM
LX-2 [20] = assay: Anti-fibrogenic activity in human LX2 cells assessed as inhibition of TGFbeta1-induced TGFbeta1 protein level at 3 to 10 uM incubated for 24 hrs by Western blot analysis; type: functional, cell-based; conditions: dose 3-10 µM
LX-2 [21] = assay: Down regulation of JAK3 expression in TGF-beta1 induced human LX2 cells at 3 to 10 uM after 24 hrs by Western blot analysis; type: functional, cell-based; conditions: dose 3-10 µM
[22] = molecular target: Mothers against decapentaplegic homolog 2/homolog 3 (Homo sapiens) (UniProt P84022+Q15796); assay: Inhibition of TGF-beta1 induced SMAD2/3 phosphorylation in human LX2 cells at 3 to 10 uM incubated for 24 hrs by Western blot analysis; type: cell-based; conditions: dose 3-10 µM
Rattus norvegicus [23] = assay: Anti-fibrotic activity in Sprague-Dawley rat model of BDL-induced […] fibrosis assessed as reduction in hepatic collagen accumulation in hepatic parenchyma at 200 mg/kg oral gavage for 14 days by Sirius red staining-based analysis; type: functional, organism-based; conditions: time 14.0 day
Rattus norvegicus [24] = assay: Anti-fibrotic activity in Sprague-Dawley rat model of BDL-induced […] fibrosis assessed as reduction in hepatic collagen accumulation in portal areas at 200 mg/kg oral gavage for 14 days by Sirius red staining-based analysis; type: functional, organism-based; conditions: time 14.0 day
Rattus norvegicus [25] = assay: Antifibrotic activity in Sprague-Dawley rat liver assessed as reduction in TGF-beta1-induced COL1A1 protein expression at 200 mg/kg oral gavage for 14 days by Western blot analysis; type: functional, organism-based; conditions: time 14.0 day
Rattus norvegicus [26] = assay: Antifibrotic activity in Sprague-Dawley rat liver assessed as reduction in TGF-beta1-induced alpha-SMA protein expression at 200 mg/kg oral gavage for 14 days by Western blot analysis; type: functional, organism-based; conditions: time 14.0 day
Rattus norvegicus [27] = assay: Antifibrotic activity in Sprague-Dawley rat liver assessed as reduction in TGF-beta1-induced TGF-beta1 protein expression at 200 mg/kg oral gavage for 14 days by Western blot analysis; type: functional, organism-based; conditions: time 14.0 day
Rattus norvegicus [28] = assay: Antifibrotic activity in Sprague-Dawley rat liver assessed as reduction in TGF-beta1-induced MMP2 protein expression at 200 mg/kg oral gavage for 14 days by Western blot analysis; type: functional, organism-based; conditions: time 14.0 day
Rattus norvegicus [29] = organism: Rattus norvegicus; assay: Anti-fibrotic activity in Sprague-Dawley rat model of BDL-induced […] fibrosis assessed as reduction in hepatic injury by hematoxylin and eosin staining based microscopic analysis; type: functional, organism-based

Chain of Mothers against decapentaplegic homolog 3 (Homo sapiens) (P84022 2-425 limits assumed): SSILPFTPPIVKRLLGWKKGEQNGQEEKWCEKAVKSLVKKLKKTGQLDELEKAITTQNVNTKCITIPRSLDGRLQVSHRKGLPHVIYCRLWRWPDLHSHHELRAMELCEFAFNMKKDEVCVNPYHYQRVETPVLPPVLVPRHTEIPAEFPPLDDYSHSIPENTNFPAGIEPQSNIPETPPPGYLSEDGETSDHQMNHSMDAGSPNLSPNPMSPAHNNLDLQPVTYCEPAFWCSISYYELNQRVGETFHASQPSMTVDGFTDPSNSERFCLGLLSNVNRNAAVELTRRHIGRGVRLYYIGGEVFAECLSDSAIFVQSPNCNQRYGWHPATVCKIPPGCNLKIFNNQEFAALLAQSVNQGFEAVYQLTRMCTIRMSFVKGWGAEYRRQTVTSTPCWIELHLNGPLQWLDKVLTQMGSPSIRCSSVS
Chain of Tyrosine-protein kinase JAK2 (Homo sapiens) (O60674 whole entry): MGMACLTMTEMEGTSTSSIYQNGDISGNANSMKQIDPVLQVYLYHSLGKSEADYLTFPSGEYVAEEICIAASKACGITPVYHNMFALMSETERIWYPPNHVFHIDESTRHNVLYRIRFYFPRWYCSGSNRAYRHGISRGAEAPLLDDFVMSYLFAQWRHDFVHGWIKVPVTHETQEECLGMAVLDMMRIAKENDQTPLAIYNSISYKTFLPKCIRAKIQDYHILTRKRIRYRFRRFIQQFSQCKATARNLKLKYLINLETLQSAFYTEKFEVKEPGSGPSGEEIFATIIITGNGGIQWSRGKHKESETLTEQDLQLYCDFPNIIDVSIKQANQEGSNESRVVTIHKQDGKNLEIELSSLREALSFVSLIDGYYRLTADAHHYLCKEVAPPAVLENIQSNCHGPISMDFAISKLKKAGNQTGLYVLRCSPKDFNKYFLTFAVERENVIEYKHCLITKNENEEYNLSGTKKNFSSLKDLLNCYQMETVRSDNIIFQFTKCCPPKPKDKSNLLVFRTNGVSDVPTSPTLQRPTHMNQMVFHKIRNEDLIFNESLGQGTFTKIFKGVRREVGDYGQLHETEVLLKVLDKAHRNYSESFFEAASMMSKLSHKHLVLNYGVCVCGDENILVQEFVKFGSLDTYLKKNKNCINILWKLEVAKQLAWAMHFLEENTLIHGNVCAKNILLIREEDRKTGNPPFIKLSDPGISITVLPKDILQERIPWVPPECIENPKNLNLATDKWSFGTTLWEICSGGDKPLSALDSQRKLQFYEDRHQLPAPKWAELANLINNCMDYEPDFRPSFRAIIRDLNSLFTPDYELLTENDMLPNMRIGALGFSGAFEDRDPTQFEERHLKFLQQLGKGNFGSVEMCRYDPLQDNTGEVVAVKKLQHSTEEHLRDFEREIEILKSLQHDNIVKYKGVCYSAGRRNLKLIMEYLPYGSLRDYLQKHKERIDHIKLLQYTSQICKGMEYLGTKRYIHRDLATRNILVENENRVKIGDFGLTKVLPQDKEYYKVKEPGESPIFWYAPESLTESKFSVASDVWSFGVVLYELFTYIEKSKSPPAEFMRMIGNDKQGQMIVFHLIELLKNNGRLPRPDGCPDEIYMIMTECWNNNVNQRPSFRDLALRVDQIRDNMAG
Chain of Mothers against decapentaplegic homolog 2/homolog 3 (Homo sapiens) (P84022 whole entry, looked up): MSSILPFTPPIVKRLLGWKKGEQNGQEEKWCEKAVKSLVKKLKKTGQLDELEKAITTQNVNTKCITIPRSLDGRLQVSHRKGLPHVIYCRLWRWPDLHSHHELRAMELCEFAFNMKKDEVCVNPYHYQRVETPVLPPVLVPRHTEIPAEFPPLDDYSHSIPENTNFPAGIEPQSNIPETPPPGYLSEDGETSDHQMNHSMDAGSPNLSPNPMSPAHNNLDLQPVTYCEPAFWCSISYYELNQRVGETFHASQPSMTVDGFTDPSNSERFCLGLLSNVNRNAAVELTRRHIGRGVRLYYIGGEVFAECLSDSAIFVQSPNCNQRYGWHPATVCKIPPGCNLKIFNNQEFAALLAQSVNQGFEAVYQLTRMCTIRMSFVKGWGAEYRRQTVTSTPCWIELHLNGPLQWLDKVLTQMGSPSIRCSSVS
Chain of Mothers against decapentaplegic homolog 2/homolog 3 (Homo sapiens) (Q15796 whole entry, looked up): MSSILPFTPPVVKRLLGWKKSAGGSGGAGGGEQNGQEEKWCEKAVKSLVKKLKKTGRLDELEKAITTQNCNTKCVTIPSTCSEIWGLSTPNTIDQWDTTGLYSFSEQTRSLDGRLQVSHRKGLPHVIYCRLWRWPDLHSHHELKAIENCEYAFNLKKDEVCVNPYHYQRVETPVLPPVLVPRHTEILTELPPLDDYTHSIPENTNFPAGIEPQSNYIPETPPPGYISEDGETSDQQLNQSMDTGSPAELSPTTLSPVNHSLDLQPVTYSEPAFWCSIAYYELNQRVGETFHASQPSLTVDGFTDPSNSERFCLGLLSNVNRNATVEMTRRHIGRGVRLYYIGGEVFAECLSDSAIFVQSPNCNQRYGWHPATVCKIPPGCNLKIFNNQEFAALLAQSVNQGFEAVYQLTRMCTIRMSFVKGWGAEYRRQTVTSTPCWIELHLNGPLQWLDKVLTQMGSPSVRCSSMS

SMILES: CN(C)c1ccc2c(=O)c(C(=O)Nc3cc(F)cc(F)c3)cn(-c3ccc(Cl)c(OCCCCCCC[n+]4ccccc4)c3)c2n1
inhibition (COL1A1 promoter [1]): inactive
CC50 at 24 h [2]: 105 µM
inhibition at 10 µM [3]: 53.6%
inhibition (COL1A1 promoter [4]): 77.8%

SMILES: CN(C)c1ccc2c(=O)c(C(=O)Nc3cc(F)cc(F)c3)cn(-c3ccc(OCCCCCCC[N+](C)(C)C4CCCCC4)c(Cl)c3)c2n1
inhibition (COL1A1 promoter [1]): 34.8%
CC50 at 24 h [2]: > 100 µM
inhibition at 10 µM [3]: 30.2%
inhibition (COL1A1 promoter [4]): 86.2%

inhibition [9]: Dose-Dependent Effect
inhibition [19]: Active
inhibition [22]: Dose-Dependent Effect
SMILES: CC[N+]1(CCCCCCCOc2cc(C)cc(-n3cc(C(=O)Nc4cc(F)cc(F)c4)c(=O)c4ccc(N(C)C)nc43)c2)CCCCC1
inhibition (LX-2 [5]): Active
inhibition at 10 µM [6]: 63.7%
inhibition at 3 µM [7]: 18.9%
inhibition at 3 µM [8]: 30.8%
inhibition at 10 µM [10]: 80.8%
inhibition (COL1A1 promoter [1]): 67.2%
inhibition at 10 µM [11]: 66%
Activity (LX-2 [12]): Dose-Dependent Effect
inhibition at 3 µM [13]: 74.9%
inhibition (LX-2 [14]): Active
CC50 at 24 h [2]: 97.6 µM
inhibition (LX2): Dose-Dependent Effect
inhibition at 3 µM [15]: 40.8%
Activity (LX-2 [16]): Dose-Dependent Effect
inhibition at 10 µM [17]: 68.1%
inhibition at 10 µM [3]: 70.8%
inhibition (LX-2 [18]): Active
inhibition (LX-2 [20]): Active
Activity (LX-2 [21]): Dose-Dependent Effect
inhibition (COL1A1 promoter [4]): 86.6%

SMILES: Cc1cc(OCCCCCCC[N+]2(C)CCCCC2)cc(-n2cc(C(=O)Nc3cc(F)cc(F)c3)c(=O)c3ccc(N(C)C)nc32)c1
inhibition (COL1A1 promoter [1]): 46.8%
CC50 at 24 h [2]: 99.4 µM
inhibition at 10 µM [3]: 23.1%
inhibition (COL1A1 promoter [4]): 79.7%

SMILES: CN(C)c1ccc2c(=O)c(C(=O)Nc3cc(F)cc(F)c3)cn(-c3ccc(Cl)c(OCCCCCCC[N+](C)(C)C4CCCCC4)c3)c2n1
inhibition (COL1A1 promoter [1]): 37.6%
CC50 at 24 h [2]: > 100 µM
inhibition at 10 µM [3]: 40.2%
inhibition (COL1A1 promoter [4]): 81.4%

inhibition [9]: Dose-Dependent Effect
inhibition [19]: Active
inhibition [22]: Dose-Dependent Effect
SMILES: CC[N+]1(CCCCCCCOc2cc(-n3cc(C(=O)Nc4cc(F)cc(F)c4)c(=O)c4ccc(N(C)C)nc43)ccc2C)CCCC1
Activity (Rattus norvegicus [23]): Active
inhibition (LX-2 [5]): Active
inhibition at 10 µM [6]: 52.4%
inhibition at 3 µM [7]: 28.9%
inhibition at 3 µM [8]: 32%
Activity (Rattus norvegicus [24]): Active
inhibition at 10 µM [10]: 83.6%
inhibition (COL1A1 promoter [1]): 57%
inhibition at 10 µM [11]: 47%
Activity (LX-2 [12]): Dose-Dependent Effect
inhibition at 3 µM [13]: 76.3%
inhibition (LX-2 [14]): Active
CC50 at 24 h [2]: 95 µM
inhibition (LX2): Dose-Dependent Effect
inhibition at 3 µM [15]: 36.8%
Activity (LX-2 [16]): Dose-Dependent Effect
inhibition at 10 µM [17]: 67.1%
Activity (Rattus norvegicus [25]): Active
inhibition at 10 µM [3]: 79.7%
Activity (Rattus norvegicus [26]): Active
inhibition (LX-2 [18]): Active
Activity (Rattus norvegicus [27]): Active
Activity (Rattus norvegicus [28]): Active
Activity (Rattus norvegicus [29]): Active
inhibition (LX-2 [20]): Active
Activity (LX-2 [21]): Dose-Dependent Effect
inhibition (COL1A1 promoter [4]): 81.3%

SMILES: CC[N+]1(CCCCCCCOc2ccc(-n3cc(C(=O)Nc4cc(F)cc(F)c4)c(=O)c4ccc(N(C)C)nc43)cc2C)CCCC1
inhibition (COL1A1 promoter [1]): 44.6%
CC50 at 24 h [2]: > 100 µM
inhibition at 10 µM [3]: 48.5%
inhibition (COL1A1 promoter [4]): 82.5%

SMILES: CN(C)c1ccc2c(=O)c(C(=O)Nc3cc(F)cc(F)c3)cn(-c3ccc(OCCCCCCC[N+]4(C)CCCCC4)cc3Cl)c2n1
inhibition (COL1A1 promoter [1]): inactive
CC50 at 24 h [2]: < 20 µM
inhibition (COL1A1 promoter [4]): inactive

SMILES: CN(C)c1ccc2c(=O)c(C(=O)Nc3cc(F)cc(F)c3)cn(-c3ccc(Cl)c(OCCCCCCC[N+]4(C)CCCCC4)c3)c2n1
inhibition (COL1A1 promoter [1]): 57.3%
CC50 at 24 h [2]: 72.6 µM
inhibition (COL1A1 promoter [4]): 90.5%
